From patent US20050228180A1, “Alpha, omega-dicarboximide derivatives as useful uro-selective a1a adrenoceptor blockers” (priority 2002, published 2005)
pKi: −log10 of the molar value. Structures can show the parent of a compound that is named as a salt.

How the values were obtained:
[1] = molecular target: T1, α1A adrenoceptor (Rattus norvegicus, UniProt P43140); experiment: Radioligand binding, [3H] prazosin displacement, rat submaxillary membranes; conditions: for pKi: [3H] prazosin displacement, rat submaxillary membranes, read-out: Affinity (Ki) α1A (Rat Submaxillary); for α1B/α1A: ratio of binding affinities, rat liver / rat submaxillary
T1 construct: from tissue; host or cells: rat submaxillary gland membranes
T1 sequence (P43140 1-466): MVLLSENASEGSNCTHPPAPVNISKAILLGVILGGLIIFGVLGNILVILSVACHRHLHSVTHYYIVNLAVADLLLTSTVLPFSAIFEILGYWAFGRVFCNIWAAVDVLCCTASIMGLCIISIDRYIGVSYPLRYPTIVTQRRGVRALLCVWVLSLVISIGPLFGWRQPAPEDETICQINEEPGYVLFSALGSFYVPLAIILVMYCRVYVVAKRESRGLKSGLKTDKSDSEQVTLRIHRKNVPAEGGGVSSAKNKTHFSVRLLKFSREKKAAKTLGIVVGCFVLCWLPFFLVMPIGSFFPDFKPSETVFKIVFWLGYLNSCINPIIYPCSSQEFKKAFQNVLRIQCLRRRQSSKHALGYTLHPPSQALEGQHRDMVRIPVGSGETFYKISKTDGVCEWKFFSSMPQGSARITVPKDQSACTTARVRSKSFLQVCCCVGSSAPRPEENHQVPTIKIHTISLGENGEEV
Description: (§1) Receptor binding assays were performed using native a-adrenoceptors. The affinity of different compounds for α1A and α1B adrenoceptor subtypes was evaluated by studying their ability to displace specific [^3H] prazosin binding from the membranes of rat submaxillary and liver respectively (Michel et al., Br J Pharmacol, 1989: 98:883). The binding assays were performed according to U+Prichard et al. (Eur J Pharmacol, 1978; 50:87 with minor modifications.
(§2) Submaxillary glands were isolated immediately after sacrifice. The liver was perfused with buffer (Tris HCl 50 mM, NaCl 100 mM, 10 mM EDTA pH 7.4). The tissues were homogenised in 10 volumes of buffer (Tris HCl 50 mM, NaCl 100 mM, 10 mM EDTA pH 7.4). The homogenate was filtered through two layers of wet gauge and filtrate was centrifuged at 500 g for 10 min. The supernatant was subsequently centrifuged at 40,000 g for 45 min. The pellet thus obtained was resuspended in the same volume of assay buffer (Tris HCl 50 mM, 5 mM EDTA pH 7.4) and was stored at −70° C. until the time of assay.
(§3) The membrane homogenates (150-250 μg protein) were incubated in 250 μl of assay buffer (Tris HCl 50 mM, EDTA 5 mM, pH 7.4) at 24-25° C. for 1 hour. Non specific binding was determined in the presence of 300 nM prazosin. The incubation was terminated by vacuum filtration over GF/B fibre filters. The filters were then washed with ice cold 50 mM Tris HCl buffer (pH 7.4). The filtermats were dried and bound radioactivity retained on filters was counted. The IC50 and Kd were estimated by using the non-linear curve-fitting program using G Pad Prism software. The value of inhibition constant Ki was calculated from competitive binding studies by using Cheng & Prusoff equation (Cheng & Prusoff, Biochem Pharmacol, 1973, 22: 3099-3108), Ki=IC50/(1+L/Kd) where L is the concentration of [^3H] prazosin used in the particular experiment (Table 1).

[2] = molecular target: T2, α1B adrenoceptor (Rattus norvegicus, UniProt P15823); experiment: Radioligand binding, [3H] prazosin displacement, rat liver membranes; conditions: read-out: Affinity (Ki) α1B (Rat Liver)
T2 construct: from tissue; host or cells: rat liver membranes
T2 sequence (P15823 1-515): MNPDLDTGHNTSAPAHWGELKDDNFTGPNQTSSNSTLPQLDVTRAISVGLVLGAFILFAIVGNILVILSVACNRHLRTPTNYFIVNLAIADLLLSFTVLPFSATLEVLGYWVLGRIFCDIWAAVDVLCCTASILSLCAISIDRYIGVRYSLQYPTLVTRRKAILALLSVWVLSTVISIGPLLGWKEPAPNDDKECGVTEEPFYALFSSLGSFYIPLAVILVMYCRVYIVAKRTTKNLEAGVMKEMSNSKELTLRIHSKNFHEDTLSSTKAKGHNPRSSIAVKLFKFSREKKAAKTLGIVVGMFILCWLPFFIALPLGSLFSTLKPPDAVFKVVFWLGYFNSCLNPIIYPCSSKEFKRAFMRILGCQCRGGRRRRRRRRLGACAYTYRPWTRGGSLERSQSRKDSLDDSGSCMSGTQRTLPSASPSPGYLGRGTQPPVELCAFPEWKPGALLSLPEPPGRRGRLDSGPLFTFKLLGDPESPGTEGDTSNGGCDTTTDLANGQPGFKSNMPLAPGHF
Description: as §1, §2, §3

| Molecule | pKi [1] | α1B/α1A [1] | pKi [2] |
| --- | --- | --- | --- |
| 1-[4-(2-Ethoxyphenyl)piperazin-1-yl]-3-(2,6-dioxopiperadin-1-yl)ethane hydrochloride [compound 05] | 7.15 | 20 | 5.86 |
| Cl.O=C1C2CC=CCC2C(=O)N1CC(O)CN1CCN(c2ccccc2O)CC1 (centres unmarked) [Compound No. 14, 2-[3-{4-(2-Hydroxyphenyl)piperazin-1-yl}-2-hydroxypropyl]-3a,4,7,7a-tetrahydro-1H-isoindole-1,3(2H)-dione hydrochloride] | 7.31 | 10 | 6.30 |
| CCOc1ccccc1N1CCN(CCN2C(=O)C3CC=CCC3C2=O)CC1.Cl (centres unmarked) [Compound No. 15, 2-[2-{4-(2-Ethoxyphenyl)piperazin-1-yl}ethyl]-3a,4,7,7a-tetrahydro-1H-isoindole-1,3(2H)-dione hydrochloride] | 7.46 | 10 | 6.46 |
| Cl.O=C1C2CC=CCC2C(=O)N1CCN1CCN(c2ccccc2OCC(F)(F)F)CC1 (centres unmarked) [Compound No. 16, 2-[2-{4-(2-(2,2,2-Trifluoroethoxy)phenyl)piperazin-1-yl}ethyl]-3a,4,7,7a-tetrahydro-1H-isoindole-1,3(2H)-dione hydrochloride] | 7.72 | 14 | 6.57 |
| CCOc1ccccc1N1CCN(CCCN2C(=O)C3CC(O)C(Cl)CC3C2=O)CC1.Cl (centres unmarked) [Compound No. 17, hydrochloride] | 8.80 | – | 7.10 |
| O=C1C2CC=CCC2C(=O)N1CCC[N+]1([O-])CCN(c2ccccc2O)CC1 (centres unmarked) [Compound No. 22, 2-[3-{4-(2-Hydroxyphenyl)piperazin-1-yl, 1-N-oxide}propyl]-3a,4,7,7a-tetrahydro-1H-isoindole-1,3(2H)-dione] | 5.80 | 0.7 | 5.96 |
| CCOc1ccc(O)cc1N1CCN(CCCN2C(=O)C3CC=CCC3C2=O)CC1 (centres unmarked) [Compound No. 24, 2-[3-{4-(2-Ethoxy-5-hydroxyphenyl)piperazin-1-yl}propyl]-3a,4,7,7a-tetrahydro-1H-isoindole-1,3-(2H)-dione hydrochloride] | 8.23 | 84 | 6.31 |
| CC(C)Oc1cccc(O)c1N1CCN(CCCN2C(=O)C3CC=CCC3C2=O)CC1 (centres unmarked) [Compound No. 27, 2-[3-{4-(2-isopropoxy-6-hydroxyphenyl)piperazin-1-yl}propyl]-3a,7,7a-tetrahydro-1H-isoindole-1,3(2H)-dione hydrochloride] | 6.51 | 16 | < 5.30 |
| CC(C)Oc1c(O)cccc1N1CCN(CCCN2C(=O)C3CC=CCC3C2=O)CC1 (centres unmarked) [Compound No. 35, 2-[3-{4-(2-Isopropoxy-3-hydroxyphenyl)piperazin-1-yllpropyl]-3a,4,7,7a-tetrahydro-1H-isoindole-1,3(2H)-dione hydrochloride] | 7.42 | 15 | 6.24 |
| CC(C)Oc1ccc(O)cc1N1CCN(CCCN2C(=O)CCCC2=O)CC1 [Compound No. 36, 1-[4-(2-Isopropoxy-5-hydroxyphenyl)piperazin-1-yl]-3-(2,6-dioxopiperdin-1-yl)piperazin-1-yl]-3-(2,6-dioxopiperidin-1-yl)propane hydrochloride] | 7.96 | 52 | 6.24 |
| CC(C)Oc1cccc(O)c1N1CCN(CCCN2C(=O)CCCC2=O)CC1 [Compound No. 37, 1-[4-(2-Isopropoxy-6-hydroxyphenyl)piperazin-1-yl]-3-(2,6-dioxopiperdin-1-yl)propane hydrochloride] | 6.34 | >2 | < 6.00 |
| CC(C)Oc1c(O)cccc1N1CCN(CCCN2C(=O)CCCC2=O)CC1.Cl [Compound No. 38, 1-[4-(2-Isopropoxy-3-hydroxyphenyl)piperazin-1-yl]-3-(2,6-dioxopiperidin-1-yl)propane hydrochloride] | 6.85 | 5 | 6.12 |
| Cl.O=C1CCCC(=O)N1CC(O)CN1CCN(c2ccccc2OCC(F)(F)F)CC1 (centres unmarked) [Compound No. 39, 1-[4-{2-(2,2,2-Trifluoroethoxy)phenyl)piperazin-1-yl]-2-hydroxy-3-(2,6-dioxopiperidin-1-yl)propane hydrochloride] | 8.16 | 200 | 5.86 |
| CC(C)Oc1ccccc1NCCNCCCN1C(=O)[C@H]2CC=CC[C@H]2C1=O [Compound No. 42, 2-[N-{N′-(2-Isopropoxyphenyl)aminoethyl}aminopropyl]-3a,4,7,7a-tetrahydro-1H-isoindole-1,3(2H)-dione hydrochloride] | 7.72 | 41 | 6.11 |
| Cl.O=C1CCCC(=O)N1CC(O)CN1CCN(c2ccccc2O)CC1 (centres unmarked) [Compound No. 44, 1-[4-(2-hydroxyphenyl)piperazin-1-yl]-2-hydroxy-3-(2,6-dioxopiperidin-1-yl]propane hydrochloride] | 6.23 | 3 | 5.76 |
| O=C1C2CC=CCC2C(=O)N1CCCN1CCN(c2ccccc2-c2ccccc2)CC1 (centres unmarked) [Compound No. 45, 2-[3-{4-(2-Biphenyl)piperazin-1-yl}propyl]-3a,4,7,7a-tetrahydro-1H-isoindole-1,3(2H)-dione hydrochloride] | 8.07 | 14 | 6.92 |
| CC(=O)N(CCCN1C(=O)C2CC=CCC2C1=O)CCNc1ccccc1OC(C)C.Cl (centres unmarked) [Compound No. 46, 2-[N-{N′-(2-Isopropoxyphenyl)aminoethyl}acetylaminopropyl]-3a,4,7,7a-tetrahydro-1H-isoindole-1,3(2H)-dione hydrochloride] | 6.42 | >3 | < 6.00 |
| CC(=O)N(CCNCCCN1C(=O)C2CC=CCC2C1=O)c1ccccc1OC(C)C.Cl (centres unmarked) [Compound No. 47, 2-[N-{N′-(2-Isopropoxyphenyl)acetylaminoethyl}aminopropyl]-3a,4,7,7a-tetrahydro-1H-isoindole-1,3(2H)-dione hydrochloride] | 6.52 | >3 | < 6.00 |
| CC(C)Oc1ccccc1NCCN(CCO)CCCN1C(=O)[C@H]2CC=CC[C@H]2C1=O [Compound No. 48, 2-[N-[{N′-(2-Isopropoxyphenyl)aminoethyl}hydroxyethyl]aminopropyl]-3a,4,7,7a-tetrahydro-1H-isoindole-1,3(2H)-dione hydrochloride] | 7.04 | >11 | < 6.00 |
| CC(C)Oc1ccccc1N1CCN(C(=O)CCN2C(=O)CCCC2=O)CC1.Cl [Compound No. 49, 1-[4(2-Isopropoxyphenyl)piperazin-1-yl]-1-oxo-3-(2,6-dioxopiperidin-1-yl)propane hydrochloride] | < 6.00 | 1 | < 6.00 |
| CC(C)Oc1ccccc1NCCN(CC=O)CCCN1C(=O)C2CC=CCC2C1=O (centres unmarked) [Compound No. 50, 2-[N-{N′-(2-Isopropoxyphenyl)aminoethyl}acetaldehyde-aminopropyl]-3a,4,7,7a-tetrahydro-1H-isoindole-1,3(2H)-dione] | 7.33 | >21 | < 6.00 |
| CC(C)Oc1ccccc1N(CCO)CCN(CCO)CCCN1C(=O)C2CC=CCC2C1=O (centres unmarked) [Compound No. 51] | 6.18 | >23 | < 4.82 |
